The values that follow are results of earlier work, collected in US20070293674A1, “Novel Saperconazole Crystalline Forms and Related Processes, Pharmaceutical Compositions and Methods” (TRANSFORM PHARMACEUTICALS, INC., priority 2004, published 2007).

The conditions of data set [1]: free base.
For data set [2] the following is noted: piperazine of itraconazole.

As for `CCC(C)n1ncn(-c2ccc(N3CCN(c4ccc(OC[C@H]5CO[C@](Cn6cncn6)(c6ccc(Cl)cc6Cl)O5)cc4)CC3)cc2)c1=O` (mixture of isomers) [itraconazole, 4-[4-[4-[4-[[2-(2,4-dichlorophenyl)-2-(1H-1,2,4-triazol-1-ylmethyl)-1,3-dioxolan-4-yl]methoxy]phenyl]-1-piperazinyl]phenyl]-2,4-dihydro-2-(1-methylpropyl)-3H-1,2,4-triazol-3-one], the solubility in water result in data set [1] is “only very sparingly soluble in water”. In addition, the “pKa value for the piperazine” value in data set [2] is listed as 3.7.
